In PMC8217170, “Phase Ib dose-escalation study of the hypoxia-modifier Myo-inositol trispyrophosphate in patients with hepatopancreatobiliary tumors” (Nature Communications, 2021):

Assay: Phase Ib dose escalation: safety and tolerability (CTCAE v4.03), MTD
Assay type: in vivo, human
Design: key to Hypercalcemia, CTCAE-Grade / Hypophosphatemia, CTCAE-Grade / Cholestasis, CTCAE-Grade / Nausea, CTCAE-Grade / Hypertension, CTCAE-Grade / Upper respiratory tract infection, CTCAE-Grade / Hyponatremia, CTCAE-Grade / Hypomagnesemia, CTCAE-Grade / Ascites & death due to rapid progression of malignancy, CTCAE-Grade / Hypokalemia, CTCAE-Grade / Pyrexia, CTCAE-Grade / Hyperphosphatemia, CTCAE-Grade / AV Block 1°, CTCAE-Grade / Palpations, CTCAE-Grade: 1 is the mildest form of the specific symptom; 5 is death
Conditions: for Hypercalcemia, CTCAE-Grade: relationship to IMP: Definitively
Text: This first-in-patient investigator-initiated phase Ib dose-escalation study followed a 3 + 3 dose-escalation scheme with a planned maximal inclusion of 48 participants allocated to eight cohorts of increasing doses. Outcomes were safety, tolerability, pharmacokinetics, and preliminary efficacy of ITPP with participants in this exploratory, prospective, open-label and unblinded, unrandomized, single-center investigation being enrolled at the University Hospital Zurich (USZ), Switzerland. Written informed consent was obtained of all participants before study inclusion after a time of consideration of at least 24 h. Written consent included the reporting and publication of individual, anonymized patient data. The study adhered to the principles of the Declaration of Helsinki, current good clinical practice guidelines and all ethical regulations. The study protocol was approved by the responsible independent ethics committee of Zurich (KEK-ZH-Nr. 2014-0374) and the national regulatory authority Swissmedic (2015DR1009) and is provided in the Supplementary Note 1. The study setup was published before inclusion start[55] and the trial first registered at ClinicalTrials.gov (NCT02528526) on 11/11/2014. After 6 sequential reviews requiring minor editorial changes, final registration at ClinicalTrials.gov was obtained on the 08/18/2015. The first patient was included in the study 04/13/2015, with treatment started on the 04/27/2015. 4 patients were included in the trial before final registration at ClinicalTrials.gov (04/13/2015–07/20/2015). The last patient was included on the 06/12/2018, treatment started on the 06/18/2018 and the last treatment administered on 07/06/2018. Data cut-off for the study was the 12/31/2018. The manuscript was written in compliance with ICMJE guidelines.
Primary objectives were (i) assessment of the safety and tolerability of increasing doses of ITPP, and (ii) establishment of the MTD (primary endpoint) according to the dose escalation schema. The primary outcome was measured by collection of adverse effects information according to Common Terminology Criteria for Adverse Events (CTCAE, US National Cancer Institute, version 4.03). Safety objectives and outcomes were identical with the primary endpoint.
The study drug (brand name: OXY111A) was intravenously administered in 9 infusions, each lasting 8 h, over 3 weeks in an outpatient setting at the Phase 1 unit of the USZ Clinical Trials Center. Due to its anionic properties, ITPP acts a potent chelator of calcium. Therefore, administration with CaCl2 (Baxter) at a 1:0.75 molar ratio has been determined to prevent hypocalcaemia. Respective doses were calculated based on body surface area (DuBois/DuBois formula). Cohort 1 started at weekly doses of 5600 mg/m^2 weekly, equal to the maximal weekly dose tested in healthy volunteers (unpublished data from Normoxys®). Dose escalation was performed according to the predefined scheme (Fig. 1a, Supplementary Note 1: page 6) up to a maximum weekly dose of 43,700 mg/m^2. During infusion days, participants had continuous monitoring of vital signs and daily 12-electrode electrocardiograms. Electrolytes measurements and venous blood gas analyses were performed three-hourly, while complete blood count, coagulation and routine kidney/liver parameters were assessed twice daily.
Severity of encountered AE was assessed following the CTCAE guidelines. Serious AE were defined as events being life-threatening, necessitating hospitalization, resulting in death or birth defects. DLT was defined as any AE ≥ grade 3 and sTET as any grade 2 AE considered to be definitely, probably or possibly related to ITPP. […] MTD was defined as the dose preceding the level at which 1 patient experienced a DLT or ≥3 patients experienced a sTET (Supplementary Note 1: page 6). The window for DLT/sTET/MTD assessment was from first dose of ITPP until first dose of chemotherapy or 10d following the last ITPP infusion. […]

[1] = cohort 4, AE, relationship to IMP: Possibly
[2] = cohort 4, AE, relationship to IMP: Unrelated
[3] = cohort 4, SAE, relationship to IMP: Unrelated
[4] = cohort 5, AE, relationship to IMP: Unlikely
[5] = cohort 7, AE, relationship to IMP: Unlikely
[6] = cohort 7, AE, relationship to IMP: Unrelated
[7] = cohort 8, AE, relationship to IMP: Possibly

SMILES: O=P1(O)OC2C3OP(=O)(O)OP(=O)(O)OC3C3OP(=O)(O)OP(=O)(O)OC3C2OP(=O)(O)O1 (stereo not drawn) [ITPP, Myo-inositol trispyrophosphate]
- Icterus due to malignant obstruction (AE, not ITPP-related) (cohort 4, 7000 mg/m^2): 0
- Lower gastrointestinal bleeding (AE, not ITPP-related) (cohort 4, 7000 mg/m^2): 0
- Nausea & vomiting due to malignant infiltration of stomach (AE, not ITPP-related) (cohort 4, 7000 mg/m^2): 0
- Neutropenia (AE, not ITPP-related) (cohort 4, 7000 mg/m^2): 0
- Palpitations (AE, not ITPP-related) (cohort 4, 7000 mg/m^2): 0
- Pyrexia (AE, not ITPP-related) (cohort 4, 7000 mg/m^2): 0
- Hypercalcemia, CTCAE-Grade (cohort 4, AE): 1
- Hypertension, CTCAE-Grade [1]: 1
- Hypophosphatemia, CTCAE-Grade [1]: 1
- Ascites, CTCAE-Grade [2]: 3
- Nausea, CTCAE-Grade [2]: 1
- Upper respiratory tract infection, CTCAE-Grade [2]: 1
- Acute kidney injury grad 3, CTCAE-Grade [3]: 3
- Hospitalisation due to fatigue/decreased state of health, CTCAE-Grade [3]: 3
- AV Block 1° (AE, not ITPP-related) (cohort 5, 8750 mg/m^2): 0
- Acute kidney injury grade 3 (AE, not ITPP-related) (cohort 5, 8750 mg/m^2): 0
- Ascites due to oncological progress (AE, not ITPP-related) (cohort 5, 8750 mg/m^2): 0
- C. difficile enteritis (AE, not ITPP-related) (cohort 5, 8750 mg/m^2): 0
- Cholestasis (AE, not ITPP-related) (cohort 5, 8750 mg/m^2): 0
- Fatigue (AE, not ITPP-related) (cohort 5, 8750 mg/m^2): 0
- Hyperphosphatemia (TET) (cohort 5, 8750 mg/m^2): 0
- Hypertension (TET) (cohort 5, 8750 mg/m^2): 0
- Hypomagnesemia (TET) (cohort 5, 8750 mg/m^2): 0
- Hypophosphatemia (TET) (cohort 5, 8750 mg/m^2): 0
- Lower gastrointestinal bleeding (AE, not ITPP-related) (cohort 5, 8750 mg/m^2): 0
- Nausea & vomiting due to malignant infiltration of stomach (AE, not ITPP-related) (cohort 5, 8750 mg/m^2): 0
- Nausea (AE, not ITPP-related) (cohort 5, 8750 mg/m^2): 0
- Neutropenia (AE, not ITPP-related) (cohort 5, 8750 mg/m^2): 0
- Palpitations (AE, not ITPP-related) (cohort 5, 8750 mg/m^2): 0
- Pyrexia (AE, not ITPP-related) (cohort 5, 8750 mg/m^2): 0
- Upper respiratory tract infection (AE, not ITPP-related) (cohort 5, 8750 mg/m^2): 0
- Hypercalcemia, CTCAE-Grade (cohort 5, AE): 1
- Hypokalemia, CTCAE-Grade [4]: 2
- Hyponatremia, CTCAE-Grade [4]: 1
- Icterus/Stenosis D. choledochus, CTCAE-Grade [4]: 3
- AV Block 1° (AE, not ITPP-related) (cohort 6, 10,500 mg/m^2): 0
- Acute kidney injury grade 3 (AE, not ITPP-related) (cohort 6, 10,500 mg/m^2): 0
- Ascites due to oncological progress (AE, not ITPP-related) (cohort 6, 10,500 mg/m^2): 0
- C. difficile enteritis (AE, not ITPP-related) (cohort 6, 10,500 mg/m^2): 0
- Cholestasis (AE, not ITPP-related) (cohort 6, 10,500 mg/m^2): 0
- Fatigue (AE, not ITPP-related) (cohort 6, 10,500 mg/m^2): 0
- Hyperphosphatemia (TET) (cohort 6, 10,500 mg/m^2): 0
- Hypertension (TET) (cohort 6, 10,500 mg/m^2): 0
- Hypokalemia (AE, not ITPP-related) (cohort 6, 10,500 mg/m^2): 0
- Hyponatremia (AE, not ITPP-related) (cohort 6, 10,500 mg/m^2): 0
- Hypophosphatemia (TET) (cohort 6, 10,500 mg/m^2): 0
- Icterus due to malignant obstruction (AE, not ITPP-related) (cohort 6, 10,500 mg/m^2): 0
- Lower gastrointestinal bleeding (AE, not ITPP-related) (cohort 6, 10,500 mg/m^2): 0
- Nausea & vomiting due to malignant infiltration of stomach (AE, not ITPP-related) (cohort 6, 10,500 mg/m^2): 0
- Nausea (AE, not ITPP-related) (cohort 6, 10,500 mg/m^2): 0
- Palpitations (AE, not ITPP-related) (cohort 6, 10,500 mg/m^2): 0
- Pyrexia (AE, not ITPP-related) (cohort 6, 10,500 mg/m^2): 0
- Upper respiratory tract infection (AE, not ITPP-related) (cohort 6, 10,500 mg/m^2): 0
- Hypercalcemia, CTCAE-Grade (cohort 6, AE): 1
- Hypomagnesemia, CTCAE-Grade (cohort 6, AE, relationship to IMP: Possibly): 1
- Neutropenia, CTCAE-Grade (cohort 6, AE, relationship to IMP: Unlikely): 3
- AV Block 1° (AE, not ITPP-related) (cohort 7, 12,390 mg/m^2): 0
- Acute kidney injury grade 3 (AE, not ITPP-related) (cohort 7, 12,390 mg/m^2): 0
- C. difficile enteritis (AE, not ITPP-related) (cohort 7, 12,390 mg/m^2): 0
- Cholestasis (AE, not ITPP-related) (cohort 7, 12,390 mg/m^2): 0
- Fatigue (AE, not ITPP-related) (cohort 7, 12,390 mg/m^2): 0
- Hyperphosphatemia (TET) (cohort 7, 12,390 mg/m^2): 0
- Hypertension (TET) (cohort 7, 12,390 mg/m^2): 0
- Hypomagnesemia (TET) (cohort 7, 12,390 mg/m^2): 0
- Hypophosphatemia (TET) (cohort 7, 12,390 mg/m^2): 0
- Icterus due to malignant obstruction (AE, not ITPP-related) (cohort 7, 12,390 mg/m^2): 0
- Lower gastrointestinal bleeding (AE, not ITPP-related) (cohort 7, 12,390 mg/m^2): 0
- Nausea & vomiting due to malignant infiltration of stomach (AE, not ITPP-related) (cohort 7, 12,390 mg/m^2): 0
- Nausea (AE, not ITPP-related) (cohort 7, 12,390 mg/m^2): 0
- Neutropenia (AE, not ITPP-related) (cohort 7, 12,390 mg/m^2): 0
- Palpitations (AE, not ITPP-related) (cohort 7, 12,390 mg/m^2): 0
- Hypercalcemia, CTCAE-Grade (cohort 7, AE): 1
- Hypokalemia, CTCAE-Grade [5]: 1
- Upper respiratory tract infection, CTCAE-Grade [5]: 2
- Ascites, CTCAE-Grade [6]: 3
- Pyrexia, CTCAE-Grade [6]: 1
- Acute kidney injury grade 3 (AE, not ITPP-related) (cohort 8, 14,500 mg/m^2): 0
- Ascites due to oncological progress (AE, not ITPP-related) (cohort 8, 14,500 mg/m^2): 0
- C. difficile enteritis (AE, not ITPP-related) (cohort 8, 14,500 mg/m^2): 0
- Cholestasis (AE, not ITPP-related) (cohort 8, 14,500 mg/m^2): 0
- Fatigue (AE, not ITPP-related) (cohort 8, 14,500 mg/m^2): 0
- Hypokalemia (AE, not ITPP-related) (cohort 8, 14,500 mg/m^2): 0
- Hyponatremia (AE, not ITPP-related) (cohort 8, 14,500 mg/m^2): 0
- Hypophosphatemia (TET) (cohort 8, 14,500 mg/m^2): 0
- Icterus due to malignant obstruction (AE, not ITPP-related) (cohort 8, 14,500 mg/m^2): 0
- Lower gastrointestinal bleeding (AE, not ITPP-related) (cohort 8, 14,500 mg/m^2): 0
- Nausea & vomiting due to malignant infiltration of stomach (AE, not ITPP-related) (cohort 8, 14,500 mg/m^2): 0
- Nausea (AE, not ITPP-related) (cohort 8, 14,500 mg/m^2): 0
- Neutropenia (AE, not ITPP-related) (cohort 8, 14,500 mg/m^2): 0
- Palpitations (AE, not ITPP-related) (cohort 8, 14,500 mg/m^2): 0
- Pyrexia (AE, not ITPP-related) (cohort 8, 14,500 mg/m^2): 0
- Upper respiratory tract infection (AE, not ITPP-related) (cohort 8, 14,500 mg/m^2): 0
- Hyperphosphatemia, CTCAE-Grade [7]: 1
- Hypomagnesemia, CTCAE-Grade [7]: 1
- Hypertension, CTCAE-Grade (cohort 8, AE, relationship to IMP: Probably): 1
- AV Block 1°, CTCAE-Grade (cohort 8, AE, relationship to IMP: Unrelated): 1
- sTET or DLT (cohorts 1–7): No significant treatment-emergent toxicity (sTET) or dose limiting toxicity (DLT) was encountered
- Total number of adverse events (AE) (during ITPP administration and 10-day follow-up): 56
- Increase in diastolic blood pressure (grade I, three older male patients with pre-existing hypertension): < 20 mmHg
- Hypercalcemia of free ionized calcium, CTCAE grade (first sTET) (patient Nr. 27, cohort 8, single dose 14’500 mg/m^2): grade II
- Hypercalcemia of free ionized calcium, CTCAE grade (second sTET and DLT) (patient Nr. 28, cohort 8, single dose 14’500 mg/m^2): grade II and IV
- Maximum tolerated dose (MTD) (single dose, intravenous over eight hours, nine infusions over three weeks): 12,390 mg/m^2
